# Earlier results in patent publication US20220142981A1, “APREMILAST LIPOPHILIC TOPICAL PHARMACEUTICAL COMPOSITIONS” (APRAMITHA INNOVATIONS PRIVATE LIMITED, priority 2019, published 2022).
compound,measurement,setting,value
"CCOc1cc([C@@H](CS(C)(=O)=O)N2C(=O)c3cccc(NC(C)=O)c3C2=O)ccc1OC [Apremilast, N-[2-[(lS)-l-(3-ethoxy-4-methoxyphenyl)-2-(methylsulfonyl)ethyl]-l,3-dioxo-2,3-dihydro-lH-isoindol-4-yl]acetamide]",solubility in polar solvents,polar solvents,minimal solubility
same,solubility in water,water,insolubility
